# Source: PubChem BioAssay (NCI)
#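 Test compounds were applied to cells in 96-well plates for 48 hours at 5 doses. The concentration for 50% growth inhibition is given as GI50. TGI is the concentration that stops growth completely.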
# Legend:
# Experiment in all cases: growth of human tumour cells (NCI), 48 h
# SF-295 CNS = system: SF-295 CNS
# NCI-H23 lung = system: NCI-H23 lung
# COLO 205 colon = system: COLO 205 colon
# MOLT-4 leukemia = system: MOLT-4 leukemia
# NCI/ADR-RES ovarian = system: NCI/ADR-RES ovarian
# ACHN renal = system: ACHN renal
# RXF 393 renal = system: RXF 393 renal
# MCF7 breast = system: MCF7 breast
# BT-549 breast = system: BT-549 breast
# A498 renal = system: A498 renal
# NCI-H226 lung = system: NCI-H226 lung
# UO-31 renal = system: UO-31 renal
# CAKI-1 renal = system: CAKI-1 renal
# SNB-75 CNS = system: SNB-75 CNS
# A549 NSCLC = system: A549 NSCLC
# HOP-62 NSCLC = system: HOP-62 NSCLC
# 786-0 renal = system: 786-0 renal
# NCI-H522 lung = system: NCI-H522 lung
# UACC-62 melanoma = system: UACC-62 melanoma
# T-47D breast = system: T-47D breast
# K-562 leukemia = system: K-562 leukemia
# SK-OV-3 ovarian = system: SK-OV-3 ovarian
# IGROV1 ovarian = system: IGROV1 ovarian
# OVCAR-3 ovarian = system: OVCAR-3 ovarian
# SK-MEL-28 melanoma = system: SK-MEL-28 melanoma
# HCT-116 colon = system: HCT-116 colon
# MDA-MB-231 breast = system: MDA-MB-231 breast
# UACC-257 melanoma = system: UACC-257 melanoma
# SNB-19 CNS = system: SNB-19 CNS
compound,measurement,setting,value
Cc1c2c(nn1C(=O)c1nn(-c3ccc(Cl)cc3)cc1O)-c1ccccc1CC2,TGI,SF-295 CNS,0.0548 µM
same,GI50,NCI-H23 lung,0.0411 µM
same,TGI,NCI-H23 lung,> 100 µM
same,GI50,COLO 205 colon,0.323 µM
same,TGI,COLO 205 colon,4.22 µM
same,GI50,MOLT-4 leukemia,0.0415 µM
same,TGI,MOLT-4 leukemia,> 39.5 µM
same,GI50,NCI/ADR-RES ovarian,0.0495 µM
same,TGI,NCI/ADR-RES ovarian,> 100 µM
same,GI50,ACHN renal,0.0456 µM
same,TGI,ACHN renal,> 100 µM
same,GI50,RXF 393 renal,0.0441 µM
same,TGI,RXF 393 renal,> 42.8 µM
same,GI50,MCF7 breast,0.115 µM
same,TGI,MCF7 breast,> 100 µM
same,GI50,BT-549 breast,0.0306 µM
same,TGI,BT-549 breast,> 100 µM
same,GI50,A498 renal,0.0181 µM
same,TGI,A498 renal,0.0612 µM
same,GI50,NCI-H226 lung,0.0968 µM
same,TGI,NCI-H226 lung,> 25.7 µM
same,GI50,UO-31 renal,0.0603 µM
same,TGI,UO-31 renal,> 100 µM
same,GI50,CAKI-1 renal,0.0971 µM
same,TGI,CAKI-1 renal,6.85 µM
same,GI50,SNB-75 CNS,0.0303 µM
same,TGI,SNB-75 CNS,> 100 µM
same,GI50,A549 NSCLC,0.0343 µM
same,TGI,A549 NSCLC,> 100 µM
same,GI50,HOP-62 NSCLC,0.0432 µM
same,TGI,HOP-62 NSCLC,> 100 µM
same,GI50,786-0 renal,0.319 µM
same,TGI,786-0 renal,> 64.1 µM
same,GI50,NCI-H522 lung,0.0376 µM
same,TGI,NCI-H522 lung,0.717 µM
same,GI50,UACC-62 melanoma,0.0507 µM
same,GI50,T-47D breast,0.0594 µM
same,TGI,T-47D breast,> 100 µM
same,GI50,K-562 leukemia,0.0273 µM
same,TGI,K-562 leukemia,> 100 µM
same,GI50,SK-OV-3 ovarian,0.202 µM
same,TGI,SK-OV-3 ovarian,> 100 µM
same,GI50,IGROV1 ovarian,0.0429 µM
same,TGI,IGROV1 ovarian,> 100 µM
same,GI50,OVCAR-3 ovarian,0.185 µM
same,TGI,OVCAR-3 ovarian,1.55 µM
same,GI50,SK-MEL-28 melanoma,0.293 µM
same,TGI,SK-MEL-28 melanoma,> 100 µM
same,GI50,HCT-116 colon,0.0339 µM
same,TGI,HCT-116 colon,> 100 µM
same,GI50,MDA-MB-231 breast,1.62 µM
same,TGI,MDA-MB-231 breast,> 100 µM
same,GI50,UACC-257 melanoma,0.218 µM
same,TGI,UACC-257 melanoma,9.73 µM
same,GI50,SNB-19 CNS,0.0446 µM
same,TGI,SNB-19 CNS,> 100 µM
